In ChEMBL document CHEMBL1201862, “PubChem BioAssay data set” (2004):
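Each compound was tested at five concentrations against cells in 96-well plates for 48 hours. The concentration for 50% growth inhibition is given as GI50.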 Activity calls are given as the source filed them. Cut-off read from the data, not from the text of the source: active = GI50 up to about 1.1 µM and inactive = higher.

Legend:
Experiment in all cases: inhibition of tumour cell growth, NCI panel, 48 h
SK-MEL-2 = system: SK-MEL-2
K562 = system: K562
U-251 = system: U-251
OVCAR-4 = system: OVCAR-4
HCT-15 = system: HCT-15
HCT-116 = system: HCT-116
NCI/ADR-RES = system: NCI/ADR-RES
SK-OV-3 = system: SK-OV-3
Malme-3M = system: Malme-3M
LOX IMVI = system: LOX IMVI
HOP-92 = system: HOP-92
SK-MEL-28 = system: SK-MEL-28
M14 = system: M14
OVCAR-5 = system: OVCAR-5
CAKI-1 = system: CAKI-1
MDA-N = system: MDA-N
CCRF-CEM = system: CCRF-CEM
A549 = system: A549
UACC-257 = system: UACC-257
SK-MEL-5 = system: SK-MEL-5

Row | SMILES | GI50 (SK-MEL-2) | GI50 (K562) | GI50 (U-251) | GI50 (OVCAR-4) | GI50 (HCT-15) [µM] | GI50 (HCT-116) | GI50 (NCI/ADR-RES) | GI50 (SK-OV-3) | GI50 (Malme-3M) | GI50 (LOX IMVI) | GI50 (HOP-92) | GI50 (SK-MEL-28) | GI50 (M14) | GI50 (OVCAR-5) | GI50 (CAKI-1) | GI50 (MDA-N) | GI50 (CCRF-CEM) | GI50 (A549) | GI50 (UACC-257) | GI50 (SK-MEL-5)
1 | Cc1ccc(-n2cc(-c3ccc(Cl)cc3)c3c(NNC(=S)NCc4ccccc4)ncnc32)cc1 | 3.17 µM (inactive) | 4.99 µM (inactive) | 5.36 µM (inactive) | 17.5 µM (inactive) | 6.08 | 4.66 µM (inactive) | 6.37 µM (inactive) | 16.3 µM (inactive) | 20.3 µM (inactive) | 5.06 µM (inactive) | 25.4 µM (inactive) | 16.1 µM (inactive) | 10.5 µM (inactive) | 11.3 µM (inactive) | 5.46 µM (inactive) | 14.9 µM (inactive) | 2.77 µM (inactive) | 4 µM (inactive) | 12.6 µM (inactive) | 5.09 µM (inactive)
2 | O=C(O)CN1CCN2CCOCCOCCN(CC1)CCN(CC(=O)O)CC2 | > 100 µM (inactive) | > 100 µM (inactive) | > 100 µM (inactive) | > 100 µM (inactive) | > 100 | > 100 µM (inactive) | > 100 µM (inactive) | > 100 µM (inactive) | > 100 µM (inactive) | > 100 µM (inactive) | > 100 µM (inactive) | > 100 µM (inactive) | > 100 µM (inactive) | > 100 µM (inactive) | > 100 µM (inactive) | > 100 µM (inactive) | > 100 µM (inactive) | > 100 µM (inactive) | > 100 µM (inactive) | > 100 µM (inactive)
3 | CCN(CC)CCCNc1c2cc(OC)ccc2nc2cccc([N+](=O)[O-])c12 | 0.101 µM (active) | 0.00643 µM (active) | 0.082 µM (active) | 0.0261 µM (active) | 0.0676 | 0.0327 µM (active) | 0.274 µM (active) | 0.246 µM (active) | 0.118 µM (active) | 0.024 µM (active) | 0.0484 µM (active) | 0.231 µM (active) | 0.0938 µM (active) | 0.0832 µM (active) | 0.21 µM (active) | 0.129 µM (active) | 0.128 µM (active) | 0.065 µM (active) | 0.227 µM (active) | 0.0935 µM (active)
4 | CSCCC(NCc1c(O)ccc2c(-c3ccccc3)cc(=O)oc12)C(=O)O (stereo not given) | > 100 µM (inactive) | > 100 µM (inactive) | > 100 µM (inactive) | > 100 µM (inactive) | > 100 | > 100 µM (inactive) | > 100 µM (inactive) | > 100 µM (inactive) | > 100 µM (inactive) | > 100 µM (inactive) | > 100 µM (inactive) | > 100 µM (inactive) | > 100 µM (inactive) | > 100 µM (inactive) | > 100 µM (inactive) | > 100 µM (inactive) | > 100 µM (inactive) | > 100 µM (inactive) | > 100 µM (inactive) | > 100 µM (inactive)
5 | COCOc1cc(OC)ccc1C/C=N/O | > 100 µM (inactive) | > 100 µM (inactive) | > 100 µM (inactive) | > 100 µM (inactive) | > 100 | > 100 µM (inactive) | > 100 µM (inactive) | > 100 µM (inactive) | > 100 µM (inactive) | > 100 µM (inactive) | > 100 µM (inactive) | > 100 µM (inactive) | > 100 µM (inactive) | > 100 µM (inactive) | > 100 µM (inactive) | > 100 µM (inactive) | > 100 µM (inactive) | > 100 µM (inactive) | > 100 µM (inactive) | > 100 µM (inactive)
6 | CC/C(Cl)=N\OC(=O)Nc1ccc(F)c(Cl)c1 | 17.3 µM (inactive) | 1.84 µM (inactive) | 17.2 µM (inactive) | 14.5 µM (inactive) | 15.2 | 14 µM (inactive) | 19.5 µM (inactive) | 18.5 µM (inactive) | 4.66 µM (inactive) | 4.91 µM (inactive) | 4.38 µM (inactive) | 15.6 µM (inactive) | 2.38 µM (inactive) | 16.5 µM (inactive) | 5.21 µM (inactive) | 18.2 µM (inactive) | 2.04 µM (inactive) | 21.3 µM (inactive) | 17.3 µM (inactive) | 15.6 µM (inactive)
